According to patent publication US20120165319A1, “INHIBITORS OF INTERLEUKIN-1 BETA CONVERTING ENZYME” (VERTEX PHARMACEUTICALS INCORPORATED, priority 1995, published 2012):
“Also recorded” adds a separate entry of the source.

Key:
[1] = system: male DBA/1J mice, type II collagen-induced arthritis; test: Type II collagen-induced arthritis; type: in vivo, mouse; conditions: oral gavage twice a day 10, 25 and 50 mg/kg (214e: 50 mg/kg once a day), Arthritis Severity Score, result in words
Experimental: Type II Collagen-Induced Arthritis
Type II collagen-induced arthritis was established in male DBA/1J mice at described Wooley and Geiger (Wooley, P. H., Methods in Enzymology, 162, pp. 361-373 (1988) and Geiger, T., Clinical and Experimental Rheumatology, 11, pp. 515-522 (1993)). Chick sternum Type II collagen ([…] in 10 mM acetic acid) was emulsified with an equal volume of Freund's complete adjuvant (FCA) by repeated passages (400) between two 10 ml glass syringes with a gauge 16 double-hub needle. Mice were immunized by intradermal injection (50 μl; […], CII per mouse) of collagen emulsion 21 days later at the contra-lateral side of the tail base. Drugs were administered twice a day (10, 25 and 50 mg/kg) by oral gavage approximately 7 h apart. Vehicles used included ethanol/PEG/water, β-cyclodextrin, labrosol/water or cremophor/water. Drug treatments were initiated within 2 h of the CII booster immunization. Inflammation was scored on a 1 to 4 scale of increasing severity on the two front paws and the scores are added to give the final score.

[2] = In vivo bioavailability determination (oral, rat); conditions: for blood levels of drug when dosed orally: oral 10-100 mg/kg; for blood levels of drug when dosed orally / drug availability when dosed orally: result in words; for Drug Availability / Cmax / drug availability when dosed orally: oral; for Cmax: aldehyde (drug) concentration
Experimental: In Vivo Bioavailability Determination
The drugs (10-100 mg/kg) were dosed orally to rats (10 mL/kg) in ethanol/PEG/water, β-cyclodextrin, labrosol/water or cremophor/water. Blood samples were drawn from the carotid artery at 0.25, 0.50, 1, 1.5, 2, 3, 4, 6, and 8 hours after dosing, centrifuged to plasma and stored at −70° C. until analysis. Aldehyde concentrations were determined using an enzymatic assay. Pharmacokinetic analysis of data was performed by non-linear regression using RStrip (MicroMath Software, UT).

[3] = system: IL-1β production, LPS-challenged mice; test: In vivo acute assay for efficacy as anti-inflammatory agent: LPS-induced IL-1β production in mice; design: species or system mouse; conditions: for inhibition of IL-1β production after oral administration, dosed at time of LPS challenge: LPS-challenged mice, vehicles ethanol/PEG/water, β-cyclodextrin, labrosol/water or cremophor/water, result in words; for Inhibition (%) of IL-1β production in LPS-challenged mice: oral, dosed at time of LPS challenge
Method in brief: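 CD1 mice (n=6) were challenged with LPS 20 mg/kg IP and given compound IP in olive oil:DMSO:ethanol (90:5:5) 1 h after LPS, or at the time of challenge for some analogs. Blood was taken 7 h after LPS and serum IL-1β was measured by ELISA. Oral gavage at 50 mg/kg was also tested.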

TX = biological target: T1, TX (Homo sapiens, UniProt P49662); test: Inhibition of ICE homologs: TX; type: biochemical; conditions: second-order rate constant for inactivation, irreversible inhibitors (Table 2)
T1 construct: made in house; host or cells: Spodoptera frugiperda (Sf9) insect cells, recombinant baculovirus (pVL1393/TX)
T1 sequence (P49662 81-270 limits assumed): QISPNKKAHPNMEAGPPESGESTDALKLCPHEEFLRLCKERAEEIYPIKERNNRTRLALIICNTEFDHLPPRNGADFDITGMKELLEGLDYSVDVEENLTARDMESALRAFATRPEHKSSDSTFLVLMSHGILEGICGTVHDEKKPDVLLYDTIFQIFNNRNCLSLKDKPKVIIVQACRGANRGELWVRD
T1 sequence (P49662 290-377 limits assumed): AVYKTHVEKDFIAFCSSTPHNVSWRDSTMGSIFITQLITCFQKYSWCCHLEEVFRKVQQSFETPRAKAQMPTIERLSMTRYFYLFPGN
Excerpt: Expression of TX in insect cells using a baculovirus expression system. We have subcloned Tx cDNA (Faucheu et al., supra 1995) into a modified pVL1393 transfer vector, co-transfected the resultant plasmid (pVL1393/TX) into insect cells with viral DNA and identified the recombinant baculovirus. After the generation of high titer recombinant virus stock, the medium was examined for TX activity using the visible ICE assay. […] ICE was used as a standard in the assay.
(§1) The selectivity of a panel of reversible inhibitors for ICE homologs is depicted in Table 1. ICE enzyme assays were performed according to Wilson et al (supra 1994) using a YVAD-AMC substrate (Thornberry et al, supra 1992). Assay of TX activity was performed using the ICE substrate under identical conditions to ICE. Assay of CPP32 was performed using a DEVD-AMC substrate (Nicholson et al., supra 1995). In general, there is low selectivity between ICE and TX for a wide range of scaffolds. None of the synthetic ICE compounds tested are effective inhibitors of CPP32.
(§2) Second-order rate constants for inactivation of ICE and ICE homologs with selected irreversible inhibitors are presented below (Table 2). The irreversible compounds studied are broad spectrum inhibitors of ICE and its homologs. Some selectivity, however, is observed with the irreversible compounds comparing inhibition of ICE and CPP32.

U937 cells = test: Fas-induced apoptosis in U937 cells; conditions: Homo sapiens, U-937, read-out: Inhibition of apoptosis
Experimental: Fas-Induced Apoptosis in U937 cells. Compounds were evaluated for their ability to block anti-Fas-induced apopotosis. […] We used this cell line for apoptosis studies. U937 cells were seeded in culture at 1×10^5 cells/ml and grown to ˜5×10^6 cells/ml. For apoptosis experiments, 2×10^6 cells were plated in 24-well tissue culture plates in 1 ml RPMI-1640-10% FBS and stimulated with 100 ng/ml anti-Fas antigen antibody (Medical and Biological Laboratories, Ltd.). After a 24 hr incubation at 37° C., the percentage of apoptotic cells was determined by FACS analysis using ApoTag reagents.

ICE = biological target: T2, ICE (Homo sapiens, UniProt P29466); test: Enzyme assay with fluorescent substrate (Acetyl-Tyr-Val-Ala-Asp-AMC); Ki and second order rate constants kinact; type: biochemical
T2 sequence (P29466 120-297 limits assumed): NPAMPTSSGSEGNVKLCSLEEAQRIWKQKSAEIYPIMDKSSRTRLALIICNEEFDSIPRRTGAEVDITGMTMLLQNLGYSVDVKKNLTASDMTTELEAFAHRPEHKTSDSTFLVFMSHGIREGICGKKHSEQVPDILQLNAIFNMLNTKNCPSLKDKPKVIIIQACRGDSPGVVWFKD
T2 sequence (P29466 317-404 limits assumed): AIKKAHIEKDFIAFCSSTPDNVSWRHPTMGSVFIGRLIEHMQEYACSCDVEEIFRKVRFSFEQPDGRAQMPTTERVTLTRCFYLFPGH
Experimental: 2. Enzyme Assay with Fluorescent Substrate
This assay is run essentially according to Thornberry et al. (Nature 356: 768-774 (1992)), using substrate 17 referenced in that article. The substrate is: Acetyl-Tyr-Val-Ala-Asp-amino-4-methylcoumarin (AMC). The following components are mixed:
The assay is run in a 96 well microtiter plate. Buffer and ICE are added to the wells. The components are left to incubate at 37° C. for 15 minutes in a temperature-controlled wellplate. After the 15 minute incubation, the reaction is started by adding substrate directly to the wells and the reaction is monitored @37° C. for 30 minutes by following the release of the AMC fluorophore using an excitation wavelength for 380 nm and an emission wavelength of 460 nm. A linear fit of the data for each well is performed and a rate is determined in fluorescence units per second.
For determination of enzyme inhibition constants (Ki) or the mode of inhibition (competitive, uncompetitive or noncompetitive), the rate data determined in the enzyme assays at varying inhibitor concentrations are computer-fit to standard enzyme kinetic equations (see I. H. Segel, Enzyme Kinetics, Wiley-Interscience, 1975).
The determination of second order rate constants for irreversible inhibitors was performed by fitting the fluorescence vs time data to the progress equations of Morrison. Morrison, J. F., Mol. Cell. Biophys., 2, pp. 347-368 (1985). Thornberry et al. have published a description of these methods for measurement of rate constants of irreversible inhibitors of ICE. Thornberry, N. A., et al. Biochemistry, 33, pp. 3923-3940 (1994). For compounds where no prior complex formation can be observed kinetically, the second order rate constants (kinact) are derived directly from the slope of the linear plots of kobs vs. [I]. For compounds where prior complex formation to the enzyme can be detected, the hyperbolic plots of kobs vs. [I] are fit to the equation for saturation kinetics to first generate Ki and k′. The second order rate constant kinact is then given by k′/Ki.
as §1, §2

[4] = system: IL-1β levels in the peritoneal fluid, carrageenan-challenged mice; test: Mouse carrageenan peritoneal inflammation; type: in vivo; conditions: for Inhibition (%) of IL-1β production in carrageenan-challenged mice: oral
Experimental: Mouse Carrageenan Peritoneal Inflammation
Inflammation was induced in mice with an intraperitoneal (IP) injection of 10 mg carrageenan in 0.5 ml of saline (Griswold et al., Inflammation, 13, pp. 727-739 (1989)). Drugs are administered by oral gavage in ethanol/PEG/water, β-cyclodextrin, labrosol/water or cremophor/water vehicle. The mice are sacrificed at 4 hours post carrageenan administration, then injected IP with 2 ml of saline containing 5 U/ml heparin. After gentle massage of the peritoneum, a small incision is made, the contents collected and volume recorded. Samples are kept on ice until centrifuged (130×g, 8 mins at 4° C.) to remove cellular material, and the resultant supernatant stored at −20° C. IL-1β levels in the peritoneal fluid are determined by ELISA.

SMILES	inhibition of inflammation / progression of type II collagen-induced arthritis [1]	blood levels of drug when dosed orally [2]	drug availability when dosed orally [2]	inhibition of IL-1β production after oral administration, dosed at time of LPS challenge [3]	Inhibition (%) of IL-1β production in LPS-challenged mice ([3]; 10 mg/kg dose) [%]	Inhibition (%) of IL-1β production in LPS-challenged mice ([3]; 25 mg/kg dose) [%]	Inhibition (%) of IL-1β production in LPS-challenged mice ([3]; 50 mg/kg dose) [%]	Inhibition (%) of IL-1β production in carrageenan-challenged mice ([4]; dose 1 mg/kg) [%]	Inhibition (%) of IL-1β production in carrageenan-challenged mice ([4]; dose 10 mg/kg) [%]	Inhibition (%) of IL-1β production in carrageenan-challenged mice ([4]; dose 25 mg/kg) [%]	Inhibition (%) of IL-1β production in carrageenan-challenged mice ([4]; dose 50 mg/kg) [%]	Inhibition (%) of IL-1β production in carrageenan-challenged mice ([4]; dose 100 mg/kg) [%]	Drug Availability ([2]; dose 25 mg/kg) [%]	Cmax ([2]; dose 25 mg/kg) [ng/mL]	further results
O=C(CN1C(=O)[C@@H](NC(=O)c2nccc3ccccc23)CN(C(=O)CO)c2ccccc21)N[C@H]1CC(=O)OC1OCc1ccccc1 (mixture of isomers) [Compound 696a, (3S)-2-Oxo-3-(isoquinolin-1-oyl)amino-5-hydroxyacetyl-N-[(2RS,3S)-benzyloxy-5-oxo-tetrahydrofuran-3-yl]-2,3,4,5-tetrahydro-1H-1,5-benzodiazepine-1-acetamide]	inhibit inflammation; also recorded: blocks the progression	significant blood levels of drug	good drug availability	inhibit IL-1β production	0	45	52								Drug Availability ([2]; dose 50 mg/kg): 10%; Cmax ([2]; dose 50 mg/kg): 1200 ng/mL
O=C(O)C[C@H](NC(=O)CN1C(=O)[C@@H](NC(=O)CCc2ccccc2)CN(C(=O)CCc2ccccc2)c2ccccc21)C(=O)COC(=O)c1c(Cl)cccc1Cl [Compound 108a, 2,6-Dichlorobenzoic acid 4-carboxy-2-oxo-3(S)-{2-[2-oxo-5-(3-phenylpropionyl)-3(S)-(3-phenylpropionylamino)-2,3,4,5-tetrahydrobenzo[b][1,4]diazepin-1-yl]acetylamino}butyl ester]															kinact (TX) (TX): 25,000 M^−1 s^−1; inhibition at 20 µM (U937 cells): > 75%; Fluorescent Assay kinact (ICE; Table 6): 1 × 10^5 m^−1 s^−1; kinact (ICE) (ICE; second-order rate constant for inactivation, irreversible inhibitors (Table 2)): 100,000 M^−1 s^−1
O=C1C[C@H](NC(=O)[C@@H]2CCCN3C(=O)CC[C@H](NC(=O)c4nccc5ccccc45)C(=O)N23)[C@H](OC2CCCC2)O1 [Compound 412d, [1S,9S(2R,3S)]N-(2-Cyclopentoxy-5-oxotetrahydrofuran-3-yl)-6,10-dioxo-9-(isoquinolin-1-oylamino)-1,2,3,4,7,8,9,10-octahydro-6-H-pyridazino[1,2-a][1,2]diazepine-1-carboxamide]	inhibit inflammation; also recorded: blocks the progression	significant blood levels of drug	good drug availability	inhibit IL-1β production				0	32	31	36	53	35	2600	
CCO[C@@H]1OC(=O)C[C@@H]1NC(=O)[C@@H]1CCCN2C(=O)CC[C@H](NC(=O)c3nccc4ccccc34)C(=O)N12 [Compound 412f, [1S,9S(2R,3S)]N-(2-Ethoxy-5-oxotetrahydrofuran-3-yl)-6,10-dioxo-9-(isoquinolin-1-oylamino)-1,2,3,4,7,8,9,10-octahydro-6-H-pyridazino[1,2-a][1,2]diazepine-1-carboxamide]	inhibit inflammation; also recorded: blocks the progression	significant blood levels of drug	good drug availability	inhibit IL-1β production	17	25	32	30	54	49	73	75	32	2400	inhibition of IL-1β production in carrageenan-challenged mice ([4]; oral administration, 214e at 50 mg/kg, result in words): inhibits IL-1β production
